# Measured values reported in PubChem BioAssay (NCI).
#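 Assay format: 96-well plates, 48-hour exposure. The concentration for full growth arrest is given as TGI.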
# Legend:
# Assay in all cases: inhibition of tumour cell growth, NCI panel, 48 h
# 786-0 renal = test system: 786-0 renal
# A498 renal = test system: A498 renal
# A549 NSCLC = test system: A549 NSCLC
# ACHN renal = test system: ACHN renal
# BT-549 breast = test system: BT-549 breast
# CAKI-1 renal = test system: CAKI-1 renal
# CCRF-CEM leukemia = test system: CCRF-CEM leukemia
# COLO 205 colon = test system: COLO 205 colon
# DU-145 prostate = test system: DU-145 prostate
# EKVX NSCLC = test system: EKVX NSCLC
# HCC-2998 colon = test system: HCC-2998 colon
# HCT-116 colon = test system: HCT-116 colon
# HCT-15 colon = test system: HCT-15 colon
# HL-60(TB) leukemia = test system: HL-60(TB) leukemia
# HOP-62 NSCLC = test system: HOP-62 NSCLC
# HS 578T breast = test system: HS 578T breast
# HT29 colon = test system: HT29 colon
# IGROV1 ovarian = test system: IGROV1 ovarian
# K-562 leukemia = test system: K-562 leukemia
# KM12 colon = test system: KM12 colon
# LOX IMVI melanoma = test system: LOX IMVI melanoma
# M14 melanoma = test system: M14 melanoma
# MALME-3M melanoma = test system: MALME-3M melanoma
# MCF7 breast = test system: MCF7 breast
# MDA-MB-231 breast = test system: MDA-MB-231 breast
# MDA-MB-435 = test system: MDA-MB-435
# MDA-N = test system: MDA-N
# MOLT-4 leukemia = test system: MOLT-4 leukemia
# NCI-H226 lung = test system: NCI-H226 lung
# NCI-H23 lung = test system: NCI-H23 lung
# NCI-H460 lung = test system: NCI-H460 lung
# NCI-H522 lung = test system: NCI-H522 lung
# NCI/ADR-RES ovarian = test system: NCI/ADR-RES ovarian
# OVCAR-3 ovarian = test system: OVCAR-3 ovarian
# OVCAR-5 ovarian = test system: OVCAR-5 ovarian
# OVCAR-8 ovarian = test system: OVCAR-8 ovarian
# PC-3 prostate = test system: PC-3 prostate
# RPMI-8226 leukemia = test system: RPMI-8226 leukemia
# SF-268 CNS = test system: SF-268 CNS
# SF-295 CNS = test system: SF-295 CNS
# SF-539 CNS = test system: SF-539 CNS
# SK-MEL-2 melanoma = test system: SK-MEL-2 melanoma
# SK-MEL-28 melanoma = test system: SK-MEL-28 melanoma
# SK-MEL-5 melanoma = test system: SK-MEL-5 melanoma
# SK-OV-3 ovarian = test system: SK-OV-3 ovarian
# SN12C renal = test system: SN12C renal
# SNB-19 CNS = test system: SNB-19 CNS
# SNB-75 CNS = test system: SNB-75 CNS
# SR leukemia = test system: SR leukemia
# SW-620 colon = test system: SW-620 colon
# T-47D breast = test system: T-47D breast
# TK-10 renal = test system: TK-10 renal
# U251 CNS = test system: U251 CNS
# UACC-257 melanoma = test system: UACC-257 melanoma
# UACC-62 melanoma = test system: UACC-62 melanoma
# UO-31 renal = test system: UO-31 renal
compound,measurement,setting,value
CCOC(=O)c1ccc(-n2cnc(-c3ccc([N+](=O)[O-])cc3)c2)cc1,TGI,786-0 renal,> 100 µM
same,TGI,A498 renal,> 100 µM
same,TGI,A549 NSCLC,> 100 µM
same,TGI,ACHN renal,> 100 µM
same,TGI,BT-549 breast,> 100 µM
same,TGI,CAKI-1 renal,> 100 µM
same,TGI,CCRF-CEM leukemia,> 100 µM
same,TGI,COLO 205 colon,> 100 µM
same,TGI,DU-145 prostate,> 100 µM
same,TGI,EKVX NSCLC,> 100 µM
same,TGI,HCC-2998 colon,> 100 µM
same,TGI,HCT-116 colon,> 100 µM
same,TGI,HCT-15 colon,> 100 µM
same,TGI,HL-60(TB) leukemia,> 100 µM
same,TGI,HOP-62 NSCLC,> 100 µM
same,TGI,HS 578T breast,> 100 µM
same,TGI,HT29 colon,> 100 µM
same,TGI,IGROV1 ovarian,> 100 µM
same,TGI,K-562 leukemia,> 100 µM
same,TGI,KM12 colon,> 100 µM
same,TGI,LOX IMVI melanoma,> 100 µM
same,TGI,M14 melanoma,> 100 µM
same,TGI,MALME-3M melanoma,> 100 µM
same,TGI,MCF7 breast,> 100 µM
same,TGI,MDA-MB-231 breast,> 100 µM
same,TGI,MDA-MB-435,> 100 µM
same,TGI,MDA-N,> 100 µM
same,TGI,MOLT-4 leukemia,> 100 µM
same,TGI,NCI-H226 lung,> 100 µM
same,TGI,NCI-H23 lung,> 100 µM
same,TGI,NCI-H460 lung,> 100 µM
same,TGI,NCI-H522 lung,36 µM
same,TGI,NCI/ADR-RES ovarian,> 100 µM
same,TGI,OVCAR-3 ovarian,> 100 µM
same,TGI,OVCAR-5 ovarian,> 100 µM
same,TGI,OVCAR-8 ovarian,> 100 µM
same,TGI,PC-3 prostate,> 100 µM
same,TGI,RPMI-8226 leukemia,> 100 µM
same,TGI,SF-268 CNS,> 100 µM
same,TGI,SF-295 CNS,> 100 µM
same,TGI,SF-539 CNS,> 100 µM
same,TGI,SK-MEL-2 melanoma,> 100 µM
same,TGI,SK-MEL-28 melanoma,> 100 µM
same,TGI,SK-MEL-5 melanoma,74.5 µM
same,TGI,SK-OV-3 ovarian,> 100 µM
same,TGI,SN12C renal,> 100 µM
same,TGI,SNB-19 CNS,> 100 µM
same,TGI,SNB-75 CNS,> 100 µM
same,TGI,SR leukemia,> 100 µM
same,TGI,SW-620 colon,> 100 µM
same,TGI,T-47D breast,> 100 µM
same,TGI,TK-10 renal,> 100 µM
same,TGI,U251 CNS,> 100 µM
same,TGI,UACC-257 melanoma,> 100 µM
same,TGI,UACC-62 melanoma,> 100 µM
same,TGI,UO-31 renal,> 100 µM
